Measured values published in patent US8217051B2, “Spiroindolinone derivatives” (Hoffmann-La Roche Inc., priority 2009, dated 2012).

Biological target: interaction between p53 and MDM2 proteins (Homo sapiens, UniProt Q00987)
Experiment: HTRF assay of inhibition of p53-MDM2 interaction (GST-MDM2 / biotinylated p53 peptide)
Assay type: binding
Settings: 0.02% BSA
Method: The ability of the compounds to inhibit the interaction between p53 and MDM2 proteins was measured by an HTRF (homogeneous time-resolved fluorescence) assay in which recombinant GST-tagged MDM2 binds to a peptide that resembles the MDM2-interacting region of p53 (Lane et al.). Binding of GST-MDM2 protein and p53-peptide (biotinylated on its N-terminal end) is registered by the FRET (fluorescence resonance energy transfer) between Europium (Eu)-labeled anti-GST antibody and streptavidin-conjugated Allophycocyanin (APC).
Test is performed in black flat-bottom 384-well plates (Costar) in a total volume of […] containing:90 nM biotinylate peptide, 160 ng/ml GST-MDM2, 20 nM streptavidin-APC (PerkinElmerWallac), 2 nM Eu-labeled anti-GST-antibody (PerkinElmerWallac), 0.2% bovine serum albumin (BSA), 1 mM dithiothreitol (DTT) and 20 mM […] (TBS) buffer as follows: Add 10 uL of GST-MDM2 (640 ng/ml working solution) in reaction buffer to each well. Add 10 uL diluted compounds (1:5 dilution in reaction buffer) to each well, mix by shaking. Add 20 uL biotinylated p53 peptide (180 nM working solution) in reaction buffer to each well and mix on shaker. Incubate at 37° C. for 1 h. Add 20 uL streptavidin-APC and Eu-anti-GST antibody mixture (6 nM Eu-anti-GST and 60 nM streptavidin-APC working solution) in TBS buffer with 0.2% BSA, shake at room temperature for 30 minutes and read using a TRF-capable plate reader at 665 and 615 nm (Victor 5, Perkin ElmerWallac). If not specified, the reagents were purchased from Sigma Chemical Co.

Chain of interaction between p53 and MDM2 proteins (Q00987 whole entry): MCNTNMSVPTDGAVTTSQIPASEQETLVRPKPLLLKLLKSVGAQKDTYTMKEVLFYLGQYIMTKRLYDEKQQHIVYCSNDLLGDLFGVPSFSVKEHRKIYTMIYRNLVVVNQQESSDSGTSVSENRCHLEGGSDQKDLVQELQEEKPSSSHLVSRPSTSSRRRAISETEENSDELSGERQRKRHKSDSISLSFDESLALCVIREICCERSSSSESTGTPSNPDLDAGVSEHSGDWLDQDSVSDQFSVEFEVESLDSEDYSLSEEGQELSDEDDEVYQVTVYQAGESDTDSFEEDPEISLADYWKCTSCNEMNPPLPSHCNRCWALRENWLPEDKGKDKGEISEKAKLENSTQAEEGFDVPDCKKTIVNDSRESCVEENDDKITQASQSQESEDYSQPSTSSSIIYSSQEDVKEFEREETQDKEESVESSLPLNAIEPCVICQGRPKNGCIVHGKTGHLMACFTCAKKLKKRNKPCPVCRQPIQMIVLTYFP

Row | Structure (SMILES) | IC50 [nM]
1 | O=C1C=C(c2cccc(F)c2)[C@]2(C(=O)Nc3cc(Cl)ccc32)[C@@H](c2cc(Cl)ccc2OC2CCOCC2)N1 (racemic) [Example 16, racemic(2′R,3R)-6-chloro-2′-[5-chloro-2-(tetrahydro-pyran-4-yloxy)-phenyl]-4′-(3-fluoro-phenyl)-1′,3′-dihydrospiro[3H-indole-3,3′-pyridine]-2,6′(1H)-dione] | 482
2 | O=C1C=C(c2cccc(Cl)c2)[C@]2(C(=O)Nc3cc(Cl)ccc32)[C@@H](c2cc(Cl)ccc2OC2CCOCC2)N1 (racemic) [Example 12, racemic(2′R,3R)-6-chloro-4′-(3-chloro-phenyl)-2′-[5-chloro-2-(tetrahydro-pyran-4-yloxy)-phenyl]-1′,3′-dihydrospiro[3H-indole-3,3′-pyridine]-2,6′(1H)-dione] | 273

The next lines start with the values.

Row | IC50 [nM] | Structure (SMILES)
3 | 5300 | Cc1ccc(F)cc1[C@H]1NC(=O)C=C(c2ccoc2)[C@]12C(=O)Nc1cc(Cl)ccc12 (racemic) [Example 32, racemic(2′R,3R)-6-chloro-2′-(5-fluoro-2-methyl-phenyl)-4′-(furan-3-yl)-1′,3′-dihydrospiro[3H-indole-3,3′(2′H)-pyridine]-2,6′(1H)-dione]
4 | 66 | Cc1ccc(F)cc1[C@H]1NC(=O)C=C(c2cccc(Cl)c2)[C@]12C(=O)Nc1cc(Cl)ccc12 [Example 6, chiral(2′R,3R)-6-chloro-4′-(3-chloro-phenyl)-2′-(5-fluoro-2-methyl-phenyl)-1′,3′-dihydrospiro[3H-indole-3,3′(2′H)-pyridine]-2,6′(1H)-dione]
5 | 6420 | Cc1ccc(F)cc1[C@H]1NC(=O)C=C(c2cccnc2)[C@]12C(=O)Nc1cc(Cl)ccc12 (racemic) [Example 40, racemic(2′R,3R)-6-chloro-2′-(5-fluoro-2-methyl-phenyl)-4′-(pyridin-3-yl)-1′,3′-dihydrospiro[3H-indole-3,3′(2′H)-pyridine]-2,6′(1H)-dione]
